Measured values as given in patent publication US20220125893A1, “METHODS FOR TREATING ARTHRITIS USING SPL-108 PEPTIDE” (Splash Pharmaceuticals, Inc., priority 2019, published 2022).

Key:
CIA mice = test: Collagen-induced arthritis (CIA) mouse model; assay type: in vivo
Description: FIGS. 10A, 10B, 10C, 10D, and 10E show histology and histological scores in ankles collected at the end of the experiments. At the end of the experiment, ankle bones were collected and decalcified in EDTA for 10 days. Decalcified bones were embedded and sagittal sections obtained and stained. H&E staining was used to help score cell infiltration, synovial thickness, and bone damage (FIG. 10A). In the figure, safranin staining will help to score cartilage damage. Black arrows show infiltration in arthritic mice treated with PBS compared to control mice without arthritis. White arrows show lack of safranin staining in the arthritic mice cartilage because of proteoglycan degradation compared to control mice without arthritis.
In the examples below, mice were used in a collagen-induced arthritis (CIA) model, a commonly used model to examine pathogenesis of rheumatoid arthritis. […] At day 0, mice were immunized with type II collagen/CFA. […] Arthritis onset subsequently occurs 4-10 days after the day 28 LPS injection. The experimental groups consisted of four groups: group 1: 6 CIA mice treated with vehicle; group 2: 6 CIA mice treated with […] SPL-108 twice a day, starting at arthritis onset (between day 32 to 36); group 3: 6 CIA mice treated with 100 mg/kg SPL-108 twice a day, starting at arthritis onset (between day 32 to 36); and group 4: 6 mice without CIA and not treated (negative control). In preventive strategies, a prophylactic treatment of SPL-108 would be started at day 0, at the time of first immunization.
FIGS. 10A, 10B, 10C, 10D, and 10E show histological scores of ankle bones collected at the end of experiments. At the end of the experiment, ankles were collected and decalcified in EDTA for 10 days. They were embedded and sagittal sections were obtained and stained. H&E staining was used to help score cell infiltration, synovial thickness, and bone damage. In the figure, safranin staining will help to score cartilage damage. Black arrows show infiltration in arthritic mice treated with PBS compared to control mice without arthritis. White arrows show lack of safranin staining (red) in the arthritic mice cartilage because of proteoglycan degradation compared to control mice without arthritis.

[1] = tested on: fibroblast-like synoviocytes (FLSs); test: In vitro Matrigel invasion assay of FLSs; assay type: cell-based; details: 0.1, 1.0, 10.0, 100 μM; presence and absence of PDGF 10 ng/mL
Experimental: FIG. 8A and FIG. 8B show the effects of SPL-108 (A6) on the invasion of FLSs using an in vitro Matrigel invasion assay. Platelet-derived growth factor (10 ng/mL) was used to stimulate invasion and the area of invasion was measured in […] before and after the addition of 0.1, 1.0, 10.0, and 100 μM SPL-108 (A6) in the presence and absence of PDGF.

[2] = tested on: fibroblast-like synoviocytes (FLSs); test: In vitro Scratch migration assay of FLSs; assay type: cell-based; details: 0.1, 1.0, 10.0, 100 μM
Experimental: Cells were grown to confluence and a thin “wound” was introduced by scratching with a pipette tip. Cells at the wound edge polarize and migrate into the wound space.

[3] = tested on: pre-existing osteoarthritis; test: Osteoarthritis symptoms in ovarian cancer patients on SPL-108 plus paclitaxel; assay type: in vivo, human; details: two patients; SPL-108 150 mg twice a day with paclitaxel 80 mg/m^2 weekly on Days 1, 8, 15, three 28-day cycles
Experimental: Two patients diagnosed with […] ovarian cancer, and enrolled in a clinical trial for evaluating the efficacy of SPL-108 in combination with paclitaxel (standard-of-care treatment), reported relief from symptoms of pre-existing osteoarthritis. Each patient received SPL-108 150 mg twice a day and Paclitaxel 80 mg/m^2 weekly on Days 1, 8, and 15, in three 28-day cycles. Each patient received a total of 25,200 mg of SPL-108 over the course of treatment.

[4] = tested on: arthritis-induced osteoclastogenesis; details: other animal studies; cited from earlier work
[5] = ankles at end of experiment, H&E staining
[6] = either dose (50 or 100 mg/kg twice a day)

Ac-KPSSPPEE-NH2 [SPL-108]
clinical score vs vehicle, significance (CIA mice; 50 mg/kg twice a day): significantly different at day 4, 5, 6, 7 | paw swelling vs vehicle, significance (CIA mice; 50 mg/kg twice a day): significantly different from day 11 to day 19 | body weight vs vehicle, significance (CIA mice; 50 mg/kg twice a day from arthritis onset): significantly different at day 7 and 9 | clinical score vs vehicle, significance (CIA mice; 100 mg/kg twice a day): significantly different from day 4 to day 20 | paw swelling vs vehicle, significance (CIA mice; 100 mg/kg twice a day): significantly different from day 11 to day 19 | body weight vs vehicle, significance (CIA mice; 100 mg/kg twice a day from arthritis onset): significantly different at day 5, 7, 9 and 11 | body weight decrease (CIA mice; CIA mice, through 11 days after disease onset, vehicle 3 grams decrease): ~1 gram | bone damage (histological score) (CIA mice; [5]): reduction | synovial hypertrophy (histological score) (CIA mice; [5]): reduction | synovial infiltration (histological score) (CIA mice; [5]): reduction | cartilage damage (histological score) (CIA mice; ankles at end of experiment, safranin staining): reduction | clinical score compared to vehicle (CIA mice; [6]): lower | paw swelling (paw size) compared to vehicle (CIA mice; [6]): lower | invasion of FLSs (area of invasion) [1]: inhibited the invasion of FLSs in a dose-dependent manner | migration of FLSs into wound space [2]: inhibited the migration of FLSs in a dose-dependent manner | improvement in osteoarthritis symptoms [3]: reduction to elimination of joint pain | arthritis-induced osteoclastogenesis [4]: inhibited arthritis-induced osteoclastogenesis
